# In PubChem BioAssay (NCI):
#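 1) Cells in 96-well plates. 2) Compound, 48 h, 5 concentrations. 3) Linear interpolation between surrounding doses. 4) Unreached endpoint = highest concentration. GI50: concentration for 50% inhibition of growth. TGI is the concentration that stops growth completely.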
# Assays:
# Assay in all cases: inhibition of tumour cell growth, NCI panel, 48 h
# M14 melanoma = test system: M14 melanoma
# OVCAR-4 ovarian = test system: OVCAR-4 ovarian
# BT-549 breast = test system: BT-549 breast
# HT29 colon = test system: HT29 colon
# NCI-H226 lung = test system: NCI-H226 lung
# TK-10 renal = test system: TK-10 renal
# SK-OV-3 ovarian = test system: SK-OV-3 ovarian
# IGROV1 ovarian = test system: IGROV1 ovarian
# HCT-116 colon = test system: HCT-116 colon
# UO-31 renal = test system: UO-31 renal
Compound,TGI (M14 melanoma) [µM],TGI (OVCAR-4 ovarian) [µM],TGI (BT-549 breast) [µM],TGI (HT29 colon) [µM],TGI (NCI-H226 lung) [µM],TGI (TK-10 renal) [µM],TGI (SK-OV-3 ovarian) [µM],TGI (IGROV1 ovarian) [µM],TGI (HCT-116 colon) [µM],GI50 (M14 melanoma) [µM],GI50 (OVCAR-4 ovarian) [µM],GI50 (BT-549 breast) [µM],GI50 (UO-31 renal) [µM],TGI (UO-31 renal) [µM],GI50 (HT29 colon) [µM],GI50 (NCI-H226 lung) [µM],GI50 (TK-10 renal) [µM],GI50 (SK-OV-3 ovarian) [µM],GI50 (IGROV1 ovarian) [µM],GI50 (HCT-116 colon) [µM]
NCCN1C(=O)c2ccccc2C1(O)c1ccc(Cl)cc1 (stereo unspecified),36,> 100,> 100,39.8,> 100,36.1,81.1,41,31.7,,,,,,,,,,,
Cn1c2ccccc2c2nnc(NNCc3ccccn3)nc21,0.738,13.9,14.9,22.9,2.63,14.3,7.22,4.79,12.2,0.246,0.451,0.729,0.258,1.98,0.526,0.324,0.614,0.387,0.364,0.409
CCN(CC)c1ccc(/C=C/C=C(/C#N)C(N)=S)cc1,9.33,> 100,16,23.9,30.9,> 100,> 100,> 100,17.7,2.53,6.27,2.73,4.39,> 100,2.84,5.27,28.7,> 100,17.9,3.58
CC/C=C\C[C@H](O)C/C=C1/C(=O)C=C[C@@H]1C/C=C\CCCC(=O)NC,4.75,19.5,4.99,3.25,4.95,6.49,8.54,10.7,2.04,1.76,3.04,1.91,1.52,3.35,1.52,2.15,2.85,2.9,2.93,0.612
Cc1cc(O)cc(C)c1/C=C/c1cncc(C(=O)OC(C)(C)C)c1,> 25,> 25,> 25,> 25,> 25,> 25,> 25,> 25,> 25,> 24,12.2,> 20.8,8.34,> 25,> 16.8,> 25,> 23.5,16.1,13.2,14.1
CC(=O)c1ccc2c(c1)N(CCCN(C)C)c1ccccc1S2,30,65.2,25.8,28.4,55.1,29.5,26.3,44,23.7,14.9,18.5,12.7,13.5,29.1,11.2,21.3,14.7,13.1,18.8,11.3
COc1ccc(/C(=N/O)c2cc(OC)c(OC)c(OC)c2)c(OC)c1N,> 100,> 100,> 100,> 100,> 100,> 100,> 100,> 100,> 100,2.7,8.18,8.79,5.45,> 100,3.54,> 100,> 100,8.51,7.71,3.41
COc1ccc(Oc2cc(NCCC(F)(F)F)c3ncc(-c4ccc(C(=O)NC5CC5)c(C)c4)n3n2)c(F)c1F,> 46.1,> 87.2,42.1,> 100,68.8,> 100,27.2,> 68.3,> 54.5,0.339,3.85,2.14,0.355,> 53.6,0.506,7.34,4.61,0.399,0.484,< 0.01
COc1cc2c(cc1O)C(c1cc(O)c(O)c(OC)c1)C(O)(C(=O)O)C(CO)C2O (stereo unspecified),> 100,> 100,> 100,> 100,> 100,> 100,> 100,> 100,42.7,,,,,> 100,,,,,,
COC(=O)/C(=C\c1c(-c2ccccc2)[nH]c2ccccc12)S(C)(=O)=O,> 100,> 100,78.8,46.1,64.5,> 100,75.5,9.17,21.4,3.34,6.23,4.29,5.49,28.7,3.58,4.99,7.71,12.1,1.67,4.2
FC(F)(F)c1[nH]ncc1-c1nc2ccc3[nH]ncc3c2c2c1CCCC2,2.9,11.4,2.66,6.76,12.4,8.27,5.83,5,10.6,1.09,2.82,1.21,1.3,5,2.11,2.26,1.24,1.79,0.942,0.523
N#C/C(=C\c1cccc2cnccc12)N1N=NC2C=CC=CC21 (stereo unspecified),> 100,> 100,> 100,> 100,> 100,26.3,25.9,> 100,,7.71,2.92,2.97,0.602,> 100,3.5,3.95,3.98,2.08,2.7,
O=Nc1c(O)c2ccccc2c2ccccc12,1.6,0.48,2.55,7.88,3.83,7.9,6.27,3.51,1.33,0.446,0.198,1.25,1.35,3.3,2.83,2.03,2.7,2.48,1.83,0.371
CNCCCn1c2c(c3ccc(F)cc3c1=O)C(=O)c1cc(OC)cnc1-2,1.63,10.5,4.84,0.624,0.356,1.79,0.674,4.11,0.617,0.308,0.421,0.577,0.13,0.809,0.145,0.163,0.332,0.228,0.32,0.143
Oc1c(CNCCNCc2cc(Cl)cc(Cc3ccccc3)c2O)cc(Cl)cc1Cc1ccccc1,10.7,> 100,28,20,15.5,> 100,> 100,16.3,13.2,0.316,0.0806,4.26,0.128,1.34,0.668,0.438,0.228,0.462,0.475,0.398
CCN(Cc1cccc(F)c1F)c1ccc(CO)c(Cl)c1,35.1,1.24,35.9,19,0.141,0.23,27.4,0.335,11.2,17.9,0.127,18.5,2.35,32.1,3.83,0.0318,0.0385,8.3,0.0668,0.067
NC(CO)C(=O)NCC(=O)O (stereo unspecified),> 100,> 100,> 100,> 100,> 100,> 100,> 100,> 100,> 100,,,,,> 100,,,,,,
CSc1nc(N)c2c(n1)NC(c1ccccc1)C1CCc3ccccc3C1=N2 (stereo unspecified),> 100,> 100,> 100,> 100,> 100,> 100,> 100,74,> 100,11.9,4.38,> 100,0.737,9.72,7.63,42.3,> 100,> 100,1.61,7.39
Clc1ccc(N2CCC(N3CCCC3)CC2)cc1-c1nc2ccccc2[nH]1,31.8,> 91.4,31.2,35.8,43.8,42.2,> 67.9,> 100,27.5,16.7,27.1,14.1,16.7,34,15.1,18.4,20.7,24.5,33.8,13.1
Nc1cc2nc3ccccc3oc-2cc1=O,3.01,> 100,3.53,> 21.7,9.2,39.7,> 61.4,21.2,> 68,1.61,23.4,1.54,1.77,10.4,2.58,2.57,14.3,19.7,2.79,6.1
CN(C)CCOc1ccc(-c2cc(-c3ccc4c(c3)CC/C4=N\O)c(-c3ccncc3)o2)cc1,3.39,11.2,8.03,4.39,9.7,9.79,7.51,10.1,4.5,0.0653,5.16,4.35,5.21,9.47,0.451,4.78,5.62,4.08,4.7,1.29
CC1(C)CC(=O)c2c(ccc(C(=O)C[C@@H](N)CO)c2N)O1,8.41,> 100,11.9,> 91.1,> 37.4,46.8,> 100,> 100,> 100,0.664,17.7,1.12,1.1,> 100,0.34,0.871,9.41,7.32,0.958,0.347
C#C/C=C/CC1OC(C(Br)CC)CC(Br)C2CC1O2 (stereo unspecified),> 100,> 100,> 100,> 100,> 100,> 100,> 100,14.6,> 100,,,,,,,,,,,
CNC(=O)c1cc2c(Oc3ccc(NC(=S)NC(=O)Cc4ccccc4)cc3F)ccnc2cc1OC,> 100,> 100,> 28.7,> 100,> 100,> 100,> 100,> 100,> 100,> 24.3,5.44,2.91,2.56,> 100,3.16,5.36,5.99,5.24,5.96,59.5
CN1CCN(c2ccc(C(=O)Nc3cccc(C#Cc4cccc5[nH]nc(N)c45)c3)cc2C(F)(F)F)CC1,1.34,4.51,7.68,1.81,6.94,3.24,5.34,1.92,1.04,0.636,0.962,3.36,0.713,1.8,0.715,2.12,1.1,1.62,0.716,0.525
CCCCCSC1C2C(=O)C(Br)=CC13CCNc1c(O)c4c5c(c13)=[N+]2CCC=5C=N4 (stereo unspecified),3.68,0.609,4.96,1.54,6.32,5.34,6.43,3.61,1.28,1.51,0.256,2.61,2.11,4.42,0.49,3.15,2.98,3.22,0.913,0.419
CN(C)c1ccc(/C=N/NC(=O)c2cccc3ccccc23)c(Cl)c1,> 100,74.2,> 100,15.8,> 100,39.3,25.2,> 100,> 100,0.763,11.6,0.733,14.6,> 100,0.503,12.3,5,1.67,3.44,0.559
